Test results as given in US20230136562A1, “SPIROUREA DERIVATIVES” (Idorsia Pharmaceuticals Ltd, priority 2020, published 2023).
Where two headings read alike, the source gives them in different places.

Tested on: primary neuronal cultures from embryonic rat brains
Assay: Rat oscillation assay (FLIPR, neuronal calcium oscillations)
Assay type: cell-based
Conditions: Rattus norvegicus
Description: A) Rat Oscillation Assay:
This assay is a functional phenotypic assay designed to mimic epileptic seizures using primary neuronal cultures from embryonic rat brains, which form a functional neuronal network that generate synchronized intracellular calcium concentration oscillations when cultured at high density in 384-well plate. The epileptic phenotype is induced by incubating the neurons in magnesium-free assay buffer, that results in increased probability of NMDA receptor activation, leading to an increased frequency and amplitude of intracellular calcium oscillations. Once neurons are incubated with the calcium indicator dye Fluo-8 AM (Tebu-bio), neuronal calcium oscillations can be monitored in real time using FLIPR® Tetra (fluorometric plate reader, Molecular Devices). With these recordings, the effect of anti-epileptic drugs can be quantified. The anti-epileptic effect of compounds, which activate directly or indirectly the Kv7 channels can be modulated by the Kv7 channel blocker XE-991. The assay was performed as described previously (Pacico N, Mingorance-Le Meur A. New In Vitro Phenotypic Assay for Epilepsy: Fluorescent Measurement of Synchronized Neuronal Calcium Oscillations. PLoS ONE 9(1) 2014) with modifications described hereafter.
Animal care followed standard procedures in accordance with swiss institutional guidelines. Dissociated neuronal cultures were obtained from cerebral cortices of embryonic Wistar rats at embryonic stage E18 (Charles River). The uterine horns were removed by caesarian surgery from deeply anesthetized rats (Isofurane) and sacrificed by decapitation. The embryos were decapitated by closing forceps. The brains were isolated and dissected one by one in ice-cold PBS (Life Technologies) under optical control using a binocular. Meninges, olfactory bulbs, and basal ganglia were removed. Cortical hemispheres (still including the hippocampus) were cut in small pieces with tweezers and placed on ice in pre-chilled Hibernate-E medium (Life technology). The hemispheres were then incubated in 10 mL of Hibernate-E containing 15 U/mL papain (Worthington) for 25 min at 30° C. with gentle mixing every 10 min. Genomic DNA was then digested by prolonging the incubation during 10 min at 37° C. in presence of 4 U/mL rDNase I (Ambion). The obtained suspension was then centrifuged at 800 g for 5 min and the cell pellet was resuspended in 2 mL Hibernate-E and gently dissociated by pipetting up and down 10 times with a plastic Pasteur pipette resulting in a homogenous cell suspension. This suspension was immediately filtered through a 70 µm cell strainer (MACS® SmartStrainer, Miltenyi), collected in 10 mL Hibernate-E and centrifuged at 800 g for 5 min. The cell pellet was resuspended in Neurobasal medium, supplemented with 2% B-27, 0.5 mM Glutamax-I, 100 U/mL penicillin, 100 µg/mL streptomycin (Life Technologies) and diluted at the final concentration of 300′000 cells/mL. One day before plating the cells, 384-well plates were coated with 25 μL/well of 0.1% poly-L-lysine solution (Sigma), incubated overnight at 37° C., washed two times with sterile distilled water and allowed to dry at room temperature for >2 h. The neurons were seeded at a density of 15′000 cells/well in 50 μL/well in a 384-well black, clear-bottomed plates (Corning) and subsequently maintained in an incubator at 37° C., 5% CO2 and 95% humidity for 8 to 10 days. After 3 and 7 days, 40% of media was renewed under sterile conditions.
Protocol Rat Oscillation Assay
Neurons seeded in the assay plates were washed with Hank's balanced salt solution (HBSS) devoid of Ca^2+ and Mg^2+, supplemented with 20 mM HEPES (Life Technologies) and 2 mM CaCl2 (Sigma), pH 7.4 (hereafter called Assay buffer) using a Biotek EL406 plate washer. Neurons were loaded with 1 μM Fluo-8 AM in Assay buffer for 15 min at 37° C., 5% CO2. […]

[1] = 20 min, AUC of fluorescence measured 20 min after compound addition, read-out: FLIPR: IC50 [nM] 20 min
[2] = Acute phase, ratio of AUC fluorescence before and after compound addition, read-out: FLIPR: IC50 [nM] acute

| SMILES | IC50 [1] [nM] | IC50 [2] [nM] |
| --- | --- | --- |
| COCC(NC(=O)NC1CC2(CCC2)C1)c1cccc(C(F)(F)F)c1 (racemic) [Example 9, (±)-1-[2-Methoxy-1-(3-trifluoromethyl-phenyl)-ethyl]-3-spiro[3.3]hept-2-yl-urea] | 2.1 | 5.1 |
| COCC(NC(=O)NC1CC2(CCC2)C1)c1ccnc(OC(F)F)c1 (racemic) [Example 10, (±)-1-[1-(2-Difluoromethoxy-pyridin-4-yl)-2-methoxy-ethyl]-3-spiro[3.3]hept-2-yl-urea] | 6 | 6.2 |
| O=C(NC1CC2(CCC2)C1)NC1COc2ccc(OC(F)(F)F)cc21 (racemic) [Example 11, (±)-1-Spiro[3.3]hept-2-yl-3-(5-trifluoromethoxy-2,3-dihydro-benzofuran-3-yl)-urea] | 171 | 246 |
| CC(NC(=O)NC1CC2(CCC2)C1)c1cc(C(F)(F)F)ccc1Br (racemic) [Example 19, (±)-1-[1-(2-Bromo-5-trifluoromethyl-phenyl)-ethyl]-3-spiro[3.3]hept-2-yl-urea] | 274 | 337 |
| COc1ccc(C(F)(F)F)cc1C(C)NC(=O)NC1CC2(CCC2)C1 (racemic) [Example 20, (±)-1-[1-(2-Methoxy-5-trifluoromethyl-phenyl)-ethyl]-3-spiro[3.3]hept-2-yl-urea] | 304 | 508 |
| COc1c(C(C)NC(=O)NC2CC3(CCC3)C2)cccc1C(F)(F)F (racemic) [Example 21, (±)-1-[1-(2-Methoxy-3-trifluoromethyl-phenyl)-ethyl]-3-spiro[3.3]hept-2-yl-urea] | 72 | 112 |
| CC(NC(=O)NC1CC2(CCC2)C1)c1cccc(C(F)(F)F)c1 (racemic) [Example 23, (±)-1-Spiro[3.3]hept-2-yl-3-[1-(3-trifluoromethyl-phenyl)-ethyl]-urea] | 4.6 | 13 |
| O=C(NC1CC2(CCC2)C1)NC(c1cccc(C(F)(F)F)c1)C1CC1 (racemic) [Example 24, (±)-1-[Cyclopropyl-(3-trifluoromethyl-phenyl)-methyl]-3-spiro[3.3]hept-2-yl-urea] | 8.6 | 14 |
| O=C(NC1CC2(CCC2)C1)NC(c1cccc(OC(F)F)c1)C1CC1 (racemic) [Example 25, (±)-1-[Cyclopropyl-(3-difluoromethoxy-phenyl)-methyl]-3-spiro[3.3]hept-2-yl-urea] | 19 | 10 |
| Cc1ccc(C(C)NC(=O)NC2CC3(CCC3)C2)cc1OCC(F)(F)F (racemic) [Example 26, (±)-1-{1-[4-Methyl-3-(2,2,2-trifluoro-ethoxy)-phenyl]-ethyl}-3-spiro[3.3]hept-2-yl-urea] | 206 | 190 |
| CC(NC(=O)NC1CC2(CCC2)C1)c1ccc(Cl)c(OCC(F)(F)F)c1 (racemic) [Example 27, (±)-1-{1-[4-Chloro-3-(2,2,2-trifluoro-ethoxy)-phenyl]-ethyl}-3-spiro[3.3]hept-2-yl-urea] | 169 | 278 |
| COc1ccc(C(C)NC(=O)NC2CC3(CCC3)C2)cc1OCC(F)(F)F (racemic) [Example 28, (±)-1-{1-[4-Methoxy-3-(2,2,2-trifluoro-ethoxy)-phenyl]-ethyl}-3-spiro[3.3]hept-2-yl-urea] | 600 | 629 |
| Cc1c(OCC(F)(F)F)cccc1C(C)NC(=O)NC1CC2(CCC2)C1 (racemic) [Example 29, (±)-1-{1-[2-Methyl-3-(2,2,2-trifluoro-ethoxy)-phenyl]-ethyl}-3-spiro[3.3]hept-2-yl-urea] | 253 | 452 |
| CC(NC(=O)NC1CC2(CCC2)C1)c1cccc(OCC(F)(F)F)c1Cl (racemic) [Example 30, (±)-1-{1-[2-Chloro-3-(2,2,2-trifluoro-ethoxy)-phenyl]-ethyl}-3-spiro[3.3]hept-2-yl-urea] | 269 | 252 |
| COc1c(OCC(F)(F)F)cccc1C(C)NC(=O)NC1CC2(CCC2)C1 (racemic) [Example 31, (±)-1-{1-[2-Methoxy-3-(2,2,2-trifluoro-ethoxy)-phenyl]-ethyl}-3-spiro[3.3]hept-2-yl-urea] | 25 | 20 |
| Cc1cc(OCC(F)(F)F)cc(C(C)NC(=O)NC2CC3(CCC3)C2)c1 (racemic) [Example 32, (±)-1-{1-[3-Methyl-5-(2,2,2-trifluoro-ethoxy)-phenyl]-ethyl}-3-spiro[3.3]hept-2-yl-urea] | 14 | 24 |
| CC(NC(=O)NC1CC2(CCC2)C1)c1cc(Cl)cc(OCC(F)(F)F)c1 (racemic) [Example 33, (±)-1-{1-[3-Chloro-5-(2,2,2-trifluoro-ethoxy)-phenyl]-ethyl}-3-spiro[3.3]hept-2-yl-urea] | 65 | 80 |
| CC(NC(=O)NC1CC2(CCC2)C1)c1cccc(S(F)(F)(F)(F)F)c1 (racemic) [Example 34, (±)-1-(1-(3-(pentafluoro-λ^6-sulfaneyl)phenyl)ethyl)-3-(spiro[3.3]heptan-2-yl)urea] | 8.5 | 6.7 |
| CC(NC(=O)NC1CC2(CCC2)C1)c1cccc(S(C)(=O)=O)c1 (racemic) [Example 36, (±)-1-[1-(3-Methanesulfonyl-phenyl)-ethyl]-3-spiro[3.3]hept-2-yl-urea] | 330 | 236 |
| CC(NC(=O)NC1CC2(CCC2)C1)c1cc(OCC(F)(F)F)ccc1Cl (racemic) [Example 39, (±)-1-{1-[2-Chloro-5-(2,2,2-trifluoro-ethoxy)-phenyl]-ethyl}-3-spiro[3.3]hept-2-yl-urea] | 571 | 487 |
| COc1ccc(OCC(F)(F)F)cc1C(C)NC(=O)NC1CC2(CCC2)C1 (racemic) [Example 40, (±)-1-{1-[2-Methoxy-5-(2,2,2-trifluoro-ethoxy)-phenyl]-ethyl}-3-spiro[3.3]hept-2-yl-urea] | 382 | 351 |
| CC(C)(O)C(NC(=O)NC1CC2(CCC2)C1)c1cccc(C(F)(F)F)c1 (racemic) [Example 45, (±)-1-[2-Hydroxy-2-methyl-1-(3-trifluoromethyl-phenyl)-propyl]-3-spiro[3.3]hept-2-yl-urea] | 628 | 549 |
| CC(NC(=O)NC1CC2(CCC2)C1)c1cccc2c1OC(F)(F)O2 (racemic) [Example 47, (±)-1-[1-(2,2-Difluoro-benzo[1,3]dioxol-4-yl)-ethyl]-3-spiro[3.3]hept-2-yl-urea] | 222 | 103 |
| CN(C)CC(NC(=O)NC1CC2(CCC2)C1)c1cccc(OCC(F)(F)F)n1 (racemic) [Example 48, (±)-1-{2-Dimethylamino-1-[6-(2,2,2-trifluoro-ethoxy)-pyridin-2-yl]-ethyl}-3-spiro[3.3]hept-2-yl-urea] | 138 | 510 |
| COCC(c1ccnc(OCC(F)(F)F)c1)N(C)C(=O)NC1CC2(CCC2)C1 (racemic) [Example 50, (±)-1-{2-Methoxy-1-[2-(2,2,2-trifluoro-ethoxy)-pyridin-4-yl]-ethyl}-1-methyl-3-spiro[3.3]hept-2-yl-urea] | 118 | 80 |
| COCC1c2cccc(OCC(F)(F)F)c2CCN1C(=O)NC1CC2(CCC2)C1 (racemic) [Example 54, (±)-1-Methoxymethyl-5-(2,2,2-trifluoro-ethoxy)-3,4-dihydro-1H-isoquinoline-2-carboxylic acid spiro[3.3]hept-2-ylamide] | 244 | 207 |
| CC(NC(=O)NC1CC2(CCC2)C1)c1cc(OCC(F)(F)F)ncn1 (racemic) [Example 61, (±)-1-Spiro[3.3]hept-2-yl-3-{1-[6-(2,2,2-trifluoro-ethoxy)-pyrimidin-4-yl]-ethyl}-urea] | 25 | 14 |
